From the PolyMetriX glass transition set come the findings set out here.

As to `*/C=C/c1ccc(OC(=O)CCCCCCCCC(=O)Oc2cccc(-c3nnc(*)s3)c2)cc1` (repeat unit), the glass transition temperature amounted to 37.00 °C. In the case of `*/C=C/c1cccc(OC(=O)CCCCCCCCC(=O)Oc2ccc(-c3nnc(*)s3)cc2)c1` (repeat unit), the glass transition temperature is 55.00 °C. The same measure for `*C(=O)CCCCCCCCC(=O)N1CCN(*)CC1` (repeat unit): 82.00 °C; for `*C(=O)CCCCCCCCC(=O)NC1CCCCN(*)C1` (repeat unit): -46.50 °C. The same measure for `*CC#C/C(C#CCOC(=O)CCCCCCCCC(=O)O*)=C\c1ccc(C#Cc2ccc([N+](=O)[O-])cc2)cc1` (repeat unit): 60.00 °C. The value for `*CC#C/C(C#CCOC(=O)CCCCCCCCC(=O)O*)=C\c1ccc(C#Cc2ccccc2)cc1` (repeat unit) was 60.00 °C. Compound `*CC(CCCCCCOc1ccc(/N=N/c2ccc(Br)cc2)cc1)COC(=O)CCCCC(=O)O*` (repeat unit) showed a glass transition temperature of 24.00 °C. The value for `*CC(CCCCCCOc1ccc(/N=N/c2ccc(C(F)(F)F)cc2)cc1)COC(=O)CCCCC(=O)O*` (repeat unit) was 44.00 °C. The same measure for `*CC(CCCCCCOc1ccc(/N=N/c2ccc(Cl)cc2)cc1)COC(=O)CCCCC(=O)O*` (repeat unit): 9.00 °C; for `*CCCCC(c1ccc(O)cc1)C(*)c1ccc(O)cc1C` (repeat unit): 25.00 °C; for `*CCCCCC(*)CC` (repeat unit): -73.00 °C. The value for `*CCCCCC(*)CCC` (repeat unit) was -68.00 °C; that for `*CCCCCC(*)CCCC` (repeat unit) was -69.00 °C; that for `*CCCCCC(*)CCCCCCCC` (repeat unit) was -72.00 °C. Compound `*CCCCCCCC(=O)OC1COC(*)OC1` (repeat unit) came in with a glass transition temperature of 6.50 °C. Take `*CCCCCCCCCCCCCCCCOC(=O)CCCCCCC(=O)O*` (repeat unit): the glass transition temperature is -26.00 °C. The value for `*CCCCCCCCCCNC(=O)CCCCCCCCC(=O)N*` (repeat unit) was 60.00 °C. The value for `*CCCCCCCCCCOC(=O)CCCCCCCCC(=O)O*` (repeat unit) was -54.00 °C. The value for `*CCCCCCCCCNC(=O)CCCCC(=O)N*` (repeat unit) was 68.00 °C; that for `*CCCCCCCCNC(=O)CCCCC(=O)N*` (repeat unit) was 50.00 °C.

As for `*CCCCCCCCOC(=O)NNC(=O)CCCCCCCCC(=O)NNC(=O)O*` (repeat unit), the glass transition temperature was 38.00 °C. The same measure for `*CCCCCCOC(=O)CCCCC(=O)O*` (repeat unit): -69.00 °C; for `*CCCCCCOC(=O)CCCCCCCCC(=O)O*` (repeat unit): -38.00 °C.

As to `*CCCCCCOC(=O)CCCCCNC(=O)CCCCC(=O)NCCCCCC(=O)O*` (repeat unit), the glass transition temperature is -7.00 °C.

In turn, `*CCCCCNC(=O)CCCCC(=O)N*` (repeat unit) returned a glass transition temperature of 46.50 °C. Compound `*CCCCCOC(=O)CCCCC(=O)O*` (repeat unit) yielded a glass transition temperature of -69.00 °C. The same measure for `*CCCCCOC(=O)NNC(=O)CCCCCCCCC(=O)NNC(=O)O*` (repeat unit): 20.00 °C; for `*CCCCOC(=O)NNC(=O)CCCCCCCCC(=O)NNC(=O)O*` (repeat unit): 56.00 °C. As for `*CCCNC(=O)C(Cc1ccccc1)NC(=O)CCCCCCCCC(=O)NC(Cc1ccccc1)C(=O)NCCCOCCOCCO*` (repeat unit), the glass transition temperature was determined as 44.00 °C. The value for `*CCOC(=O)CCCCC(=O)OCCOC(=O)c1ccc(C(=O)O*)cc1` (repeat unit) was 8.00 °C. Consider `*CCOCCOC(=O)CCCCCCCC(=O)O*` (repeat unit), for which the glass transition temperature was -71.00 °C. The same measure for `*CCOCCOC(=O)CCCCCCCCC(=O)O*` (repeat unit): -74.50 °C; for `*Cc1ccc(CNC(=O)CCCCCCCCC(=O)N*)cc1` (repeat unit): 115.00 °C. The same measure for `*Cc1cccc(CNC(=O)CCCCC(=O)N*)c1` (repeat unit): 84.00 °C; for `*NC1CCC(CC2CCC(NC(=O)CCCCCCCCC(*)=O)CC2)CC1` (repeat unit): 144.00 °C; for `*Nc1cc(NC(=O)CCCCC(*)=O)cc(-c2nnc(-c3ccccn3)o2)c1` (repeat unit): 159.00 °C. The value for `*Nc1cc(NC(=O)CCCCCCCCC(*)=O)cc(-c2nnc(-c3ccccn3)o2)c1` (repeat unit) was 85.00 °C; that for `*Nc1cc(NC(=O)c2cc(OCCCS(=O)(=O)c3ccc(/N=N/c4ccc(N(C)C)cc4)cc3)cc(C(*)=O)c2)cc(C(=O)OCCCN(C)c2ccc(/N=N/c3ccc(S(C)(=O)=O)cc3)cc2)c1` (repeat unit) was 166.00 °C. Compound `*Nc1ccc(C(=O)c2ccc(NC(=O)c3cc(C(*)=O)cc(C(C)(C)C)c3)cc2)cc1` (repeat unit) returned a glass transition temperature of 271.00 °C.

Compound `*Nc1ccc(C(c2ccc(NC(=O)c3cc(C(*)=O)cc(C(C)(C)C)c3)cc2)(C(F)(F)F)C(F)(F)F)cc1` (repeat unit) came in with a glass transition temperature of 284.10 °C. The same measure for `*Nc1ccc(C(c2ccc(NC(=O)c3cc(C(*)=O)cc(C(C)(C)C)c3)cc2)(P2(=O)Oc3ccccc3-c3ccccc32)P2(=O)Oc3ccccc3-c3ccccc32)cc1` (repeat unit): 235.00 °C; for `*Nc1ccc(C2(c3ccc(NC(=O)c4cc(C(*)=O)cc(C(C)(C)C)c4)cc3)c3ccccc3-c3ccccc32)cc1` (repeat unit): 284.00 °C. The same measure for `*Nc1ccc(NC(=O)CCCCCC(*)=O)cc1` (repeat unit): 133.00 °C; for `*Nc1ccc(NC(=O)CCCCCCCCC(*)=O)cc1` (repeat unit): 125.00 °C. The compound `*Nc1cccc(NC(=O)CCCCCCC(*)=O)c1` (repeat unit) came in with a glass transition temperature of 115.50 °C. The compound `*Nc1cccc(NC(=O)CCCCCCCCC(=O)Nc2ccc(C(=O)NC(*)=S)cc2)c1` (repeat unit) had a glass transition temperature of 265.00 °C. The same measure for `*OC(=O)CCCCCCCCC(=O)OC1COC2C(*)COC12` (repeat unit): 3.00 °C; for `*OC(=O)CNC(=O)CCCCCCCCC(=O)NCC(=O)OC1COC2C(*)COC12` (repeat unit): 66.00 °C; for `*OC1CCC(OC(=O)CCCCCCCCC(*)=O)CC1` (repeat unit): 66.00 °C. `*O[Si](C)(C)O[Si](C)(C)O[Si](C)(C)OC(C)CCCCC(*)C` (repeat unit) returned a glass transition temperature of -94.00 °C. The same measure for `*Oc1c(-c2ccccc2)cc(-c2cc(-c3ccccc3)c(OC(=O)CCCCCCCCC(*)=O)c(-c3ccccc3)c2)cc1-c1ccccc1` (repeat unit): 98.00 °C.

The compound `*Oc1ccc(-c2ccc(NC(=O)c3cc(C(=O)Nc4ccc(-c5ccc(Oc6ccc(C(C)(C)c7ccc(*)cc7)cc6)c(C(F)(F)F)c5)cc4)cc(C(C)(C)C)c3)cc2)cc1C(F)(F)F` (repeat unit) displayed a glass transition temperature of 248.50 °C. The value for `*Oc1ccc(/C(=C/c2ccc(-c3ccc(/C=C(\c4ccccc4)c4ccc(OC(=O)CCCCCCCCC(*)=O)cc4)cc3)cc2)c2ccccc2)cc1` (repeat unit) was 111.00 °C; that for `*Oc1ccc(C(=O)c2cccc(NC(=O)CCCCCCCCC(=O)Nc3cccc(C(=O)c4ccc(*)cc4)c3)c2)cc1` (repeat unit) was 141.00 °C; that for `*Oc1ccc(C2(c3ccc(OC(=O)CCCCC(*)=O)cc3)c3ccccc3-c3ccccc32)cc1` (repeat unit) was 166.00 °C. The value for `*Oc1ccc(C2(c3ccc(OC(=O)CCCCCCCCC(*)=O)cc3)c3ccccc3-c3ccccc32)cc1` (repeat unit) was 151.00 °C; that for `*Oc1ccc(NC(=O)CCCCC(=O)Nc2ccc(*)cc2)cc1` (repeat unit) was 230.00 °C; that for `*Oc1ccc(NC(=O)CCCCCCC(=O)Nc2ccc(OC3COC4C(*)COC34)cc2)cc1` (repeat unit) was 72.50 °C. With `*Oc1ccc(NC(=O)CCCCCCCC(=O)Nc2ccc(*)cc2)cc1` (repeat unit), the glass transition temperature worked out at 160.00 °C. Take `*Oc1ccccc1C(=O)OC(=O)c1ccccc1OC(=O)CCCCC(*)=O` (repeat unit): the glass transition temperature was 55.00 °C. The same measure for `*Oc1ccccc1C(=O)OC(=O)c1ccccc1OC(=O)CCCCCC(*)=O` (repeat unit): 40.00 °C. The same measure for `*Oc1ccccc1C(=O)OC(=O)c1ccccc1OC(=O)CCCCCCC(*)=O` (repeat unit): 28.00 °C. The same measure for `*Oc1ccccc1C(=O)OC(=O)c1ccccc1OC(=O)CCCCCCCC(*)=O` (repeat unit): 25.00 °C; for `*Oc1ccccc1C(=O)OC(=O)c1ccccc1OC(=O)CCCCCCCCC(*)=O` (repeat unit): 28.00 °C; for `*c1ccc(OCCCCCCCCCCCOC(=O)CCCCCCCCC(=O)OCCCCCCCCCCCOc2ccc(-c3nnc(*)s3)cc2)cc1` (repeat unit): 52.00 °C.

In turn, `*c1ccc2c(c1)C(=O)N(c1ccc(C(=O)Nc3ccc(C(c4ccc(NC(=O)c5ccc(N6C(=O)c7ccc(C(*)(C(F)(F)F)C(F)(F)F)cc7C6=O)c(C)c5)cc4)(C(F)(F)F)C(F)(F)F)cc3)cc1C)C2=O` (repeat unit) returned a glass transition temperature of 344.00 °C. The value for `*c1ccc2c(c1)C(=O)N(c1cccc(C(=O)Nc3ccc(C(c4ccc(NC(=O)c5cccc(N6C(=O)c7ccc(C(*)(C(F)(F)F)C(F)(F)F)cc7C6=O)c5C)cc4)(C(F)(F)F)C(F)(F)F)cc3)c1C)C2=O` (repeat unit) was 250.00 °C; that for `*c1cccc(NC(=O)CCCCCCC(=O)Nc2cccc(S(*)(=O)=O)c2)c1` (repeat unit) was 125.00 °C.
